# Data reported in US9018383B2, “Acylamino-substituted cyclic carboxylic acid derivatives and their use as pharmaceuticals” (Sanofi, priority 2009, dated 2015).
# Target: human Edg-2 receptor (Homo sapiens, UniProt Q92633)
# Experiment: Determination of Edg-2 receptor inhibition by FLIPR measurements (LPA-mediated calcium liberation)
# Assay type: cell-based
# Details: CHO cells overexpressing human Edg-2 receptor, LPA 100 nM, fluo-4 calcium fluorescence; read-out: Inhibitory concentrations IC50 for inhibition of the Edg-2 receptor
# Experimental: A) Determination of Edg-2 Receptor Inhibition by Fluorescence Imaging Plate Reader (FLIPR) Measurements
# The inhibition of the Edg-2 receptor (LPA1 receptor) by the compounds of the invention was quantified by the inhibitory effect on the LPA-mediated calcium liberation in a cell-based calcium fluorescence assay by use of Chinese hamster ovarian (CHO) cells in which the human Edg-2 receptor was stably overexpressed (Flp-In system, Invitrogen). […] Changes in intracellular calcium were determined by fluorescence measurement with the calcium-sensitive dye fluo-4 (Invitrogen) in a fluorescence imaging plate reader (FLIPR, […]).
# CHO cells stably overexpressing the human Edg-2 receptor were seeded (40.000 per well) in black clear-bottomed poly-D-lysine-coated 96 well plates (Becton Dickinson, Biocoat cellware) approximately 18-24 h prior to the experiments. Cells were grown in an incubator at 37° C., 5% carbon dioxide and 95% humidity in cell culture media based on F-12 glutamax media (Gibco, #31765) supplemented with 1% (vol/vol) penicilline/streptomycine (PAN, #P06-07100), 10% (vol/vol) fetal calf serum (FCS, PAA, #A15-151) and hygromycin B (Invitrogen, #10687-010) 300 mg/l (final concentrations).
# Prior to the FLIPR experiment, cells were loaded with fluo-4 acetoxymethyl ester (fluo-4 AM, Invitrogen, #F14202) for 60 min in an incubator at 37° C., 5% carbon dioxide and 95% humidity in dye-loading buffer consisting of Hanks' Balanced Salt Solution (HBSS, Invitrogen, #14065049) supplemented with fluo-4 AM at 2 μM (all data given for final concentration), Pluronic® F-127 0.05% (vol/vol) (Invitrogen, #P-3000 MP), HEPES 20 mM (Gibco, #15630), probenecid 2.5 mM (Sigma, #P-8761) and bovine serum albumin 0.05% (BSA, Sigma, #A-6003), adjusted to pH 7.5 with sodium hydroxide. During cell loading, fluo-4 AM is cleaved by intracellular esterase resulting in trapping of the dye fluo-4 within the cells. Loading was terminated by washing of the cells in a cell washer (Tecan Power washer) three times with the buffer specified afore but without fluo-4 AM and BSA. This latter buffer was also used as the buffer in the subsequent cell fluorescence measurements.
# The dye-loaded and washed cells were pre-incubated for approximately 5 min with various concentrations of the test compound added as a solution in DMSO (0.3% vol/vol maximum final concentration of DMSO), or with DMSO in the respective concentration only (positive control). Subsequent addition of LPA (18:1, 1-oleoyl-sn-glycerol 3-phosphate; 100 nM final concentration) leads to liberation of intracellular calcium from internal stores resulting in a large transient increase of the fluo-4 fluorescence signal which was monitored over approximately 3 min. The percent inhibition caused by the test compound was determined from the maximum fluorescence response after LPA addition to cells pre-incubated with the compound as compared to the maximum fluorescence response after LPA addition to cells pre-incubated with DMSO only. All fluorescence values were corrected for the baseline fluorescence values obtained with cells which were pre-incubated with DMSO only and were not treated with LPA (baseline control). All measurements were performed in triplicate. From the percent inhibitions the inhibitory concentration IC50 was determined.
# Chain of human Edg-2 receptor (Q92633 whole entry): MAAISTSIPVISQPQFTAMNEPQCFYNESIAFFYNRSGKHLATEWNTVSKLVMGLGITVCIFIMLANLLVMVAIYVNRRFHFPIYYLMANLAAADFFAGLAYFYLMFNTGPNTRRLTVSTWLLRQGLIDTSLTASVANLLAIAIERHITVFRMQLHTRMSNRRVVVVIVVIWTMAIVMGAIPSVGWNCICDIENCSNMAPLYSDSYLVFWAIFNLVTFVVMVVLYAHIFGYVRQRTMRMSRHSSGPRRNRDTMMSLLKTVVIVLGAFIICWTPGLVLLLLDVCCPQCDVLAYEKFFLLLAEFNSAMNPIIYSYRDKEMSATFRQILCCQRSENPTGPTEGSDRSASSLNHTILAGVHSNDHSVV
row,Structure (SMILES),IC50 [nM]
1,"COc1ncc(C(=O)NC2(C(=O)O)CCCCCC2)cc1OCCc1ccccc1 [Example 88, 1-{[5-(2-Phenyl-ethoxy)-6-methoxy-pyridine-3-carbonyl]-amino}-cycloheptanecarboxylic acid]",< 100
2,COc1ccc(C(=O)NC2(C(=O)O)CCCCCC2)cc1OCC(C)c1ccccc1 (stereo not shown) [Example 9],< 100
3,COc1ccc(C(=O)NC2(C(=O)O)CCCCCC2)cc1-c1cccc(NS(=O)(=O)N(C)C)c1 [Example 103],100 to 1000
4,COc1ccc(C(=O)NC2(C(=O)O)CCC2)cc1OCCc1cccc(C)c1 [Example 34],1000 to 30000
5,COc1ccc(C(=O)NC2(C(=O)O)CCCCC2C)cc1OCCc1cccc(C)c1 (stereo not shown) [Example 48],1000 to 30000
6,CC[C@H]1CC[C@](NC(=O)c2ccc(OC)c(OCCc3cccc(Cl)c3)c2)(C(=O)O)CC1 [Example 208],< 100
7,CC[C@H]1CC[C@@](NC(=O)c2ccc(OC)c(OCCc3cccc(Cl)c3)c2)(C(=O)O)CC1 [Example 207],< 100
8,"COc1ccc(C(=O)NC2(C(=O)O)CCCCCC2)cc1OCCc1cc(C)ccc1F [Example 1, 1-{3-[2-(2-Fluoro-5-methyl-phenyl)-ethoxy]-4-methoxy-benzoylamino}-cycloheptanecarboxylic acid]",100 to 1000
9,"Cc1cccc(CCOc2cc(C(=O)N[C@]3(C(=O)O)CC[C@H](C(F)(F)F)CC3)ccc2C2COC2)c1 [Example 131, cis-1-[4-Oxetan-3-yl-3-(2-m-tolyl-ethoxy)-benzoylamino]-4-trifluoromethyl-cyclohexanecarboxylic acid]",< 100
10,COc1ccc(C(=O)NC2(C(=O)O)CCCCCC2)cc1-c1cccc(C(C)C)c1 [Example 105],100 to 1000
11,"CC[C@H]1CC[C@@](NC(=O)c2cnc(OC)c(OCCc3ccccc3)c2)(C(=O)O)CC1 [Example 355, trans-4-Ethyl-1-[(6-methoxy-5-phenethyloxy-pyridine-3-carbonyl)-amino]-cyclohexanecarboxylic acid]",< 100
12,COc1ccc(C(=O)NC2(C(=O)O)CCCCCC2)cc1OCCc1ccc(Cl)cc1Cl [Example 15],1000 to 30000
13,COc1ncc(C(=O)N[C@]2(C(=O)O)CC[C@@H](C)CC2)cc1-c1cccc(OC(F)(F)F)c1 [Example 308],< 100
14,COc1ccc(C(=O)NC2(C(=O)O)CCCCCC2)cc1OCCc1ccccc1 [Example 8],< 100
15,COc1ccc(C(=O)NC2(C(=O)O)CCCCCC2)cc1OCCc1cccc(C(F)(F)F)c1 [Example 363],100 to 1000
16,"COc1ncc(C(=O)NC2(C(=O)O)CCCCCCC2)cc1OCCc1cccc(C)c1 [Example 78, 1-{[6-Methoxy-5-(2-m-tolyl-ethoxy)-pyridine-3-carbonyl]-amino}-cyclooctanecarboxylic acid]",100 to 1000
17,"COCCOc1ccc(C(=O)NC2(C(=O)O)CCCCCC2)cc1OCCc1cccc(Cl)c1 [Example 115, 1-[3-[2-(3-Chloro-phenyl)-ethoxy]-4-(2-methoxy-ethoxy)-benzoylamino]-cycloheptanecarboxylic acid]",1000 to 30000
18,COc1ccc(C(=O)NC2(C(=O)O)CCCCCC2)cc1OCCc1cccs1 [Example 6],100 to 1000
19,CCC1CC1(NC(=O)c1ccc(OC)c(OCCc2cccc(C)c2)c1)C(=O)O (stereo not shown) [Example 41],< 100
20,"COc1c(F)cc(C(=O)NC2(C(=O)O)CCCCCC2)cc1OCCc1cccc(C)c1 [Example 70, 1-[3-Fluoro-4-methoxy-5-(2-m-tolyl-ethoxy)-benzoylamino]-cycloheptanecarboxylic acid]",< 100
21,"COCCOc1ccc(C(=O)NC2(C(=O)O)CCCCCC2)cc1OCCc1cccc(C)c1 [Example 116, 1-[4-(2-Methoxy-ethoxy)-3-(2-m-tolyl-ethoxy)-benzoylamino]-cycloheptanecarboxylic acid]",1000 to 30000
22,CC[C@H]1CC[C@@](NC(=O)c2ccc(OC)c(-c3ccc(OC)c(Cl)c3)c2)(C(=O)O)CC1 [Example 352],< 100
23,CC[C@H]1CC[C@@](NC(=O)c2ccc(OC)c(OCCc3ccccc3)c2)(C(=O)O)CC1 [Example 205],< 100
24,"CC[C@H]1CC[C@](NC(=O)c2cnc(OC)c(-c3cc(F)cc(F)c3)c2)(C(=O)O)CC1 [Example 360, cis-1-{[5-(3,5-Difluoro-phenyl)-6-methoxy-pyridine-3-carbonyl]-amino}-4-ethyl-cyclohexanecarboxylic acid]",< 100

# Second part, the compound after the results:
row,IC50 [nM],Structure (SMILES)
1,100 to 1000,"CC[C@H]1CC[C@@](NC(=O)c2ccc(C=O)c(-c3cccc(C(F)(F)F)c3)c2)(C(=O)O)CC1 [Example 429, trans-4-Ethyl-1-[(6-formyl-3′-trifluoromethyl-biphenyl-3-carbonyl)-amino]-cyclohexanecarboxylic acid]"
2,< 100,COc1ccc(C(=O)NC2(C(=O)O)CCC(C(C)C)CC2)cc1OCCc1cccc(C)c1 (stereo not shown) [Example 370]
3,< 100,"COc1ncc(C(=O)NC2(C(=O)O)CCCCCC2)cc1OCCc1cccc(Cl)c1 [Example 401, 1-({5-[2-(3-Chloro-phenyl)-ethoxy]-6-methoxy-pyridine-3-carbonyl}-amino)-cycloheptanecarboxylic acid]"
4,100 to 1000,"CC[C@H]1CC[C@](NC(=O)c2ccc(OC)c(-c3ccc(OC)c(F)c3)c2)(C(=O)O)CC1 [Example 425, cis-4-Ethyl-1-[(3′-fluoro-6,4′-dimethoxy-biphenyl-3-carbonyl)-amino]-cyclohexanecarboxylic acid]"
5,< 100,CC[C@H]1CC[C@](NC(=O)c2cc(F)c(OCCO)c(-c3ccc(F)c(F)c3)c2)(C(=O)O)CC1 [Example 384]
6,< 100,"COc1ccc(C(=O)N[C@]2(C(=O)O)CC[C@H](C)CC2)cc1OCCc1cc(Cl)ccc1F [Example 404, cis-1-{3-[2-(5-Chloro-2-fluoro-phenyl)-ethoxy]-4-methoxy-benzoylamino}-4-methyl-cyclohexanecarboxylic acid]"
7,< 100,"CC[C@H]1CC[C@@](NC(=O)c2cc(F)c(OC)c(OCCc3cccc(CCO)c3)c2)(C(=O)O)CC1 [Example 394, trans-4-Ethyl-1-(3-fluoro-5-{2-[3-(2-hydroxy-ethyl)-phenyl]-ethoxy}-4-methoxy-benzoylamino)-cyclohexanecarboxylic acid]"
8,100 to 1000,"COc1cc(F)c(-c2cc(C(=O)N[C@]3(C(=O)O)CC[C@@H](C)CC3)ccc2C(F)(F)F)c(F)c1 [Example 444, 1-[(2′,6′-Difluoro-4′-methoxy-6-trifluoromethyl-biphenyl-3-carbonyl)-amino]-4-methyl-cyclohexanecarboxylic acid]"
9,< 100,COc1ncc(C(=O)N[C@]2(C(=O)O)CC[C@H](C(F)(F)F)CC2)cc1-c1cccc(C(F)(F)F)c1F [Example 377]
10,< 100,"COc1ncc(C(=O)N[C@]2(C(=O)O)CC[C@H](C(F)(F)F)CC2)cc1OCCc1cccc(C)c1 [Example 402, cis-1-{[6-Methoxy-5-(2-m-tolyl-ethoxy)-pyridine-3-carbonyl]-amino}-4-trifluoromethyl-cyclohexanecarboxylic acid]"
11,100 to 1000,"CCc1sc(C(=O)N[C@]2(C(=O)O)CC[C@@H](CC)CC2)cc1OCCc1cccc(Cl)c1 [Example 440, trans-1-({4-[2-(3-Chloro-phenyl)-ethoxy]-5-ethyl-thiophene-2-carbonyl}-amino)-4-ethyl-cyclohexanecarboxylic acid]"
12,100 to 1000,"C[C@H]1CC[C@](NC(=O)c2ccc(CCCO)c(-c3cccc(C(F)(F)F)c3)c2)(C(=O)O)CC1 [Example 434, cis-1-{[6-(3-Hydroxy-propyl)-3′-trifluoromethyl-biphenyl-3-carbonyl]-amino}-4-methyl-cyclohexanecarboxylic acid]"
13,< 100,"CC[C@H]1CC[C@](NC(=O)c2ccc(OCCO)c(OCCc3cccc(Cl)c3)c2)(C(=O)O)CC1 [Example 419, cis-1-[3-[2-(3-Chloro-phenyl)-ethoxy]-4-(2-hydroxy-ethoxy)-benzoylamino]-4-ethyl-cyclohexanecarboxylic acid]"
